This note sets out measurements from PubChem BioAssay (NCI).

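Dose response: 5 concentrations. Exposure: 48 h. Format: 96-well plates. Endpoint: linear interpolation; highest concentration if not reached. GI50 marks 50% less growth. Definition used: TGI = concentration required for complete inhibition of growth.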

Common to all, as to test: NCI tumour cell line growth inhibition, 48 h
Assay [1] deals with ACHN renal.
In assay [2] the test system is LXFL 529 NSCLC.
The subject of assay [3] is M14 melanoma.
The subject of assay [4] is MALME-3M melanoma.
The test system of assay [5] is SF-268 CNS.
The subject of assay [6] is SK-MEL-2 melanoma.
Assay [7] deals with UACC-257 melanoma.
Assay [8] relates to SR leukemia.
Assay [9] concerns SW-620 colon.
Assay [10] deals with T-47D breast.
Assay [11] concerns HOP-18 NSCLC.

Take `COc1c(Cl)cc(S(=O)O)cc1Cl`: the TGI in [1], in [2], in assay [3], in assay [4], in [5] and in [6] was more than 100 µM throughout. Besides, in assay [7], the TGI is more than 100 µM.
Take `Fc1ccc(-c2nnc3sc(COc4ccccc4Cl)nn23)cc1Cl`: the GI50 in [1] is 32.7 µM; in [3], 34.9 µM; in assay [4], 70.9 µM; in [5], 41.9 µM; in assay [6] it was 51.8 µM; in [8], 23.3 µM. For the same compound, the GI50 in assay [9] is 30.2 µM; in assay [10] it was 32.8 µM; in [7], 46.2 µM. Further, the TGI in assay [1] is more than 100 µM; in [3], more than 100 µM; in assay [4], more than 100 µM; in assay [5], more than 100 µM; in [6], more than 100 µM; in assay [8] it was 76.4 µM. Moreover, the figures for the TGI in assay [9], in [10] and in assay [7] were 74.5 µM, more than 100 µM and more than 100 µM, respectively.
Turning to `c1ccc2sc(SCN(C3CCCCC3)C3CCCCC3)nc2c1`, the TGI in [1], in [3], in assay [4], in [5], in assay [6] and in assay [8] was more than 100 µM throughout. Further, the TGI in assay [9] is more than 100 µM; in [10], 49.5 µM; in assay [7] it was more than 100 µM.
Regarding `CC(CO)(CO)Nc1ncnc2ccccc12`, the TGI in assay [1], in [3], in [4], in assay [5], in [6] and in assay [8] was more than 100 µM each time. Further, the TGI in assay [9], in assay [10] and in assay [7] was more than 100 µM throughout.
As for `Nc1nnc(N)n1NC(=O)C(=O)Nc1ccc([N+](=O)[O-])cc1`, the TGI in assay [1], in assay [11], in assay [4], in assay [5], in [6] and in assay [8] was more than 100 µM in each case. The TGI in [9] and in assay [7] was more than 100 µM in each case.
For `NC(=O)Nc1cc(O)ccc1N=Nc1ccc(S(=O)(=O)Nc2ccccn2)cc1`, the TGI in assay [1], in assay [11], in [2], in [3], in assay [4] and in [5] was more than 100 µM in each case. For the same compound, the TGI in assay [6], in [9] and in [7] was more than 100 µM each time.
For `COc1cc(O)c2c(c1)C(=O)c1cc(C)cc(O)c1C2=O`, the TGI in [1], in [11], in assay [2], in [3], in [4] and in [5] was more than 100 µM in each case. The TGI in assay [6], in [8], in assay [9] and in assay [7] was more than 100 µM in each case.
